Assays:
Assay type in all cases: cell-based
K. pneumoniae BAA 1705 = test: Broth microdilution MIC (strain KPC-producing); conditions: Klebsiella pneumoniae, BAA1705; alone; read-out: MIC of ceftibuten (CTB)
K. oxytoca 176877 = test: Broth microdilution MIC (strain enzymes: SHV-105); conditions: Klebsiella oxytoca, 176877; alone; read-out: MIC of ceftibuten (CTB)
K. oxytoca 496 #2 = test: Broth microdilution MIC (strain enzymes: SHV-105, TEM-1); conditions: Klebsiella oxytoca; alone; read-out: MIC of ceftibuten (CTB)
E. coli ESBL 5 = test: Broth microdilution MIC (strain enzymes: CTX-M15, TEM-1); conditions: Escherichia coli, ESBL5; alone; read-out: MIC of ceftibuten (CTB)
E. coli SI-V502 = test: Broth microdilution MIC (strain enzymes: TEM-29, CTX-M15); conditions: Escherichia coli, SIV502; alone; read-out: MIC of ceftibuten (CTB)
E. coli BAS 1 = test: Broth microdilution MIC (strain enzymes: none detected); conditions: Escherichia coli, BAS1; alone; read-out: MIC of ceftibuten (CTB)
K. oxytoca 169219 = test: Broth microdilution MIC (strain enzymes: TEM-1, CTXM-15); conditions: Klebsiella oxytoca, 169219; alone; read-out: MIC of ceftibuten (CTB)
K. pneumoniae KPN 508 = test: Broth microdilution MIC (strain enzymes: SHV-7, TEM-1); conditions: Klebsiella pneumoniae, KPN508; alone; read-out: MIC of ceftibuten (CTB)
E. coli 1924 = test: Broth microdilution MIC (strain enzymes: TEM-12); conditions: Escherichia coli, 1924; alone; read-out: MIC of ceftibuten (CTB)
E. coli SI-PBLII = test: Broth microdilution MIC (strain enzymes: CTX-M2, TEM-1); conditions: Escherichia coli; alone; read-out: MIC of ceftibuten (CTB)
K. pneumoniae 319478 = test: Broth microdilution MIC (strain enzymes: SHV-12, CTX-M3 and TEM-1); conditions: Klebsiella pneumoniae, 319478; alone; read-out: MIC of ceftibuten (CTB)
E. coli 2150 = test: Broth microdilution MIC (strain enzymes: SHV-3, TEM-1); conditions: Escherichia coli, 2150; alone; read-out: MIC of ceftibuten (CTB)
K. pneumoniae KP 8 = test: Broth microdilution MIC (strain enzymes: TEM-10, TEM-1, CTX-M15); conditions: Klebsiella pneumoniae, KP8; alone; read-out: MIC of ceftibuten (CTB)
E. coli 3174 = test: Broth microdilution MIC (strain enzymes: TEM-1, CTXM-15); conditions: Escherichia coli, 3174; alone; read-out: MIC of ceftibuten (CTB)
K. pneumoniae 115468 = test: Broth microdilution MIC (strain enzymes: TEM-1); conditions: Klebsiella pneumoniae, 115468; alone; read-out: MIC of ceftibuten (CTB)
K. pneumoniae ESBL 10 = test: Broth microdilution MIC (strain enzymes: SHV-12, TEM-1); conditions: Klebsiella pneumoniae, ESBL10; alone; read-out: MIC of ceftibuten (CTB)
K. pneumoniae 153239 = test: Broth microdilution MIC (strain enzymes: SHV-11, TEM-1); conditions: Klebsiella pneumoniae, 153239; alone; read-out: MIC of ceftibuten (CTB)
K. pneumoniae 3151 = test: Broth microdilution MIC (strain enzymes: SHV-12, TEM-1); conditions: Klebsiella pneumoniae, 3151; alone; read-out: MIC of ceftibuten (CTB)
K. pneumoniae ESBL 8 #1 = test: Broth microdilution MIC (strain enzymes: TEM-1, SHV-12); conditions: Klebsiella pneumoniae; alone; read-out: MIC of ceftibuten (CTB)

Nc1nc(/C(=C/CC(=O)O)C(=O)N[C@@H]2C(=O)N3C(C(=O)O)=CCS[C@H]23)cs1 [Ceftibuten, ceftibuten, reference compound]
MIC (K. pneumoniae BAA 1705): 32 µg/mL | MIC (K. oxytoca 176877): 4 µg/mL | MIC (K. oxytoca 496 #2): 8 µg/mL | MIC (E. coli ESBL 5): > 32 µg/mL | MIC (E. coli SI-V502): 0.5 µg/mL | MIC (E. coli BAS 1): > 32 µg/mL | MIC (K. oxytoca 169219): 4 µg/mL | MIC (K. pneumoniae KPN 508): 32 µg/mL | MIC (E. coli 1924): 0.5 µg/mL | MIC (E. coli SI-PBLII): 0.5 µg/mL | MIC (K. pneumoniae 319478): > 32 µg/mL | MIC (E. coli 2150): 0.5 µg/mL | MIC (K. pneumoniae KP 8): 0.25 µg/mL | MIC (E. coli 3174): 0.5 µg/mL | MIC (K. pneumoniae 115468): 8 µg/mL | MIC (K. pneumoniae ESBL 10): 16 µg/mL | MIC (K. pneumoniae 153239): 0.25 µg/mL | MIC (K. pneumoniae 3151): > 32 µg/mL | MIC (K. pneumoniae ESBL 8 #1): 16 µg/mL

Source: patent US12544395B2, “Combination compositions comprising a beta-lactamase inhibitor and uses thereof” (priority 2018, dated 2026)
